Measured values: ChEMBL document CHEMBL3997854, “Discovery of Orally Efficacious Tetrahydrobenzimidazoles as TGR5 Agonists for Type 2 Diabetes” (ACS Med Chem Lett, 2017)

Legend:
Type in all cases: ADME, organism-based
[1] = Half life in overnight fasted C57BL/6J mouse at 20 mg/kg, po administered via gavage by LC-MS/MS analysis; settings: in vivo
[2] = Plasma concentration in C57BL/6J mouse at 30 mg/kg, po measured at 2 hrs post dose by LC-MS/MS analysis
[3] = AUClast in overnight fasted C57BL/6J mouse at 20 mg/kg, po administered via gavage after 24 hrs by LC-MS/MS analysis; parameters: dose 20 mg/kg, time < 24 hr, route oral; settings: in vivo
[4] = Volume of distribution at steady state in overnight fasted C57BL/6J mouse at 5 mg/kg, iv by LC-MS/MS analysis; settings: in vivo, read-out: Vdss
[5] = Cmax in overnight fasted C57BL/6J mouse at 20 mg/kg, po administered via gavage by LC-MS/MS analysis; parameters: dose 20 mg/kg, route oral; settings: in vivo
[6] = Bioavailability in overnight fasted C57BL/6J mouse at 5 mg/kg, iv by LC-MS/MS analysis; settings: in vivo
[7] = Clearance in overnight fasted C57BL/6J mouse at 5 mg/kg, iv by LC-MS/MS analysis; settings: in vivo

half-life [1] [h] | concentration at 2 h [2] [nM] | AUC(0-t) at 24 h [3] [ng·h/mL] | Vd [4] [L/kg] | Cmax [5] [ng/mL] | bioavailability [6] [%] | clearance [7] [mL/min/kg] | SMILES
1.33 | 1610 | 2540 | 1.63 | 918 | 13.9 | 18.1 | COc1cc(C2(C)CCCc3nc(SCc4c(F)cc(OCCOCCOCCN(C)C)cc4F)n(-c4ccc(F)cc4)c32)ccc1Cl (stereo not given)
– | 100 | – | – | – | – | – | COc1ccc(C2(C)CCCc3nc(SCc4ncccn4)n(-c4ccc(F)cc4)c32)cc1OC (stereo not given)
– | 280 | 785 | 0.856 | 913 | 10.8 | 45.3 | COc1cc(C2(C)CCCc3nc(SCc4ncccn4)n(-c4ccc(F)cc4)c32)ccc1F (stereo not given)
2 | 2110 | 7160 | 0.818 | 2410 | 22.1 | 10.2 | COc1cc(C2(C)CCCc3nc(SCc4c(F)cc(OCCOCCOCCN(C)C)cc4F)n(-c4ccc(F)cc4)c32)ccc1F (stereo not given)

The next lines start with the compound.

SMILES | half-life [1] [h] | concentration at 2 h [2] [nM] | AUC(0-t) at 24 h [3] [ng·h/mL] | Vd [4] [L/kg] | Cmax [5] [ng/mL] | bioavailability [6] [%] | clearance [7] [mL/min/kg]
COc1ccc(C2(C)CCCc3nc(SCc4c(F)cc(OCCOCCOCCN(C)C)cc4F)n(-c4ccc(F)cc4)c32)cc1OC (stereo not given) | 2.1 | 2210 | 9350 | 0.947 | 2890 | 27.5 | 9.68
COc1cc(C2(C)CCCc3nc(SCc4ncccn4)n(-c4ccc(F)cc4)c32)ccc1Cl (stereo not given) | – | 200 | 527 | 1.43 | 507 | 9.44 | 58.4
COc1cc(C2(C)CCCc3nc(SCc4c(F)ccc(OCCOCCOCCN(C)C)c4F)n(-c4ccc(F)cc4)c32)ccc1Cl (stereo not given) | – | 760 | – | – | – | – | –
